Series [1] in a line: Evaluation of molecule stability (alkali treatment, LC/MS residual rate). Type of series: physicochemical. The conditions noted are these: 500 μM peptide plus equivalent of 1 M sodium hydroxide, 15° C., 20 minutes, LC/MS peak area. In short, it runs like this:
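Cyclic peptide at 500 μM in water treated with an equivalent of 1 M NaOH for 20 minutes at 15° C. Residual rate is the total LC/MS peak area after treatment relative to that before treatment, set as 100%. Analysis on a C18 column at 45° C with ammonium formate pH 3 eluents and ESI detection.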

In another series the target is human integrin αvβ5 (Homo sapiens, UniProt P06756+P18084). The experiment in a line: Evaluation of integrin binding property (surface plasmon resonance, Biacore 3000, immobilized cyclic peptide). Particulars: peptide immobilized on CM5 sensor chip; human integrin αvβ5 30-1,000 nM, 25° C., HEPES buffer with 5 mM magnesium chloride; read-out: Integrin binding property (dissociation constant). In short, it runs like this: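 Cyclic peptides amine-coupled to a CM5 chip via EDC/NHS, with a blank reference channel; integrin injected 10 min at 25 °C at 30, 100, 300 and 1,000 nM in HEPES pH 7.4, 150 mM NaCl, 5 mM MgCl2, then 30 min buffer flow, EDTA regeneration. Kd from reference-subtracted responses, graded by category.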
Sequence of human integrin αvβ5 (P06756 31-889 limits assumed): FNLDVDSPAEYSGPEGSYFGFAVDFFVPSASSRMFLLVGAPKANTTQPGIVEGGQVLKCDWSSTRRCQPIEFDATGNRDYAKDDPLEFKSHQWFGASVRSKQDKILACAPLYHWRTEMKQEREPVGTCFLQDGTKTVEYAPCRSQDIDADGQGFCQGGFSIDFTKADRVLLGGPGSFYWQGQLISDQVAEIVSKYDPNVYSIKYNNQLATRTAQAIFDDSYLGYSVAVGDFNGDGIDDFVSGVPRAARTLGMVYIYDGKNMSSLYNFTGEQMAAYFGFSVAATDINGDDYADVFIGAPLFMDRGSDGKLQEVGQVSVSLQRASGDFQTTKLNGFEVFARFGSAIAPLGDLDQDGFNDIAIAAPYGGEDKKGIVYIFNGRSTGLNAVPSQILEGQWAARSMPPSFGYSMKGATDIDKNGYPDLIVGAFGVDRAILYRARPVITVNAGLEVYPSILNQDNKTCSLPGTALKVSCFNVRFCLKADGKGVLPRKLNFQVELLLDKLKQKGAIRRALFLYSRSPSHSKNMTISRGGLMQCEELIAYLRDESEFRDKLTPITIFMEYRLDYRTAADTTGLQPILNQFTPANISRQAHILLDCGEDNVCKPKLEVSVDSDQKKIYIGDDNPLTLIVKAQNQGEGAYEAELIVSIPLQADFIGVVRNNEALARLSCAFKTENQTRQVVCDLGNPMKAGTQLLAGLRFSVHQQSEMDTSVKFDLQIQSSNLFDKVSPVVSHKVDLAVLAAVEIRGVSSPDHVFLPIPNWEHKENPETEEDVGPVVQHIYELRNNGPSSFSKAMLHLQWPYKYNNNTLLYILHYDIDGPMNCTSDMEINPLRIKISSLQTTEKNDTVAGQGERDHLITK
Sequence of human integrin αvβ5 (P06756 891-1048 partner limits assumed): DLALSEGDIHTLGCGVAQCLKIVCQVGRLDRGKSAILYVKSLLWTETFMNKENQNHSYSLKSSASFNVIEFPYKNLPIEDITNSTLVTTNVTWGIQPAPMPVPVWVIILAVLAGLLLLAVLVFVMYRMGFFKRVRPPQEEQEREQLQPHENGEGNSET
Sequence of human integrin αvβ5 (P18084 24-799): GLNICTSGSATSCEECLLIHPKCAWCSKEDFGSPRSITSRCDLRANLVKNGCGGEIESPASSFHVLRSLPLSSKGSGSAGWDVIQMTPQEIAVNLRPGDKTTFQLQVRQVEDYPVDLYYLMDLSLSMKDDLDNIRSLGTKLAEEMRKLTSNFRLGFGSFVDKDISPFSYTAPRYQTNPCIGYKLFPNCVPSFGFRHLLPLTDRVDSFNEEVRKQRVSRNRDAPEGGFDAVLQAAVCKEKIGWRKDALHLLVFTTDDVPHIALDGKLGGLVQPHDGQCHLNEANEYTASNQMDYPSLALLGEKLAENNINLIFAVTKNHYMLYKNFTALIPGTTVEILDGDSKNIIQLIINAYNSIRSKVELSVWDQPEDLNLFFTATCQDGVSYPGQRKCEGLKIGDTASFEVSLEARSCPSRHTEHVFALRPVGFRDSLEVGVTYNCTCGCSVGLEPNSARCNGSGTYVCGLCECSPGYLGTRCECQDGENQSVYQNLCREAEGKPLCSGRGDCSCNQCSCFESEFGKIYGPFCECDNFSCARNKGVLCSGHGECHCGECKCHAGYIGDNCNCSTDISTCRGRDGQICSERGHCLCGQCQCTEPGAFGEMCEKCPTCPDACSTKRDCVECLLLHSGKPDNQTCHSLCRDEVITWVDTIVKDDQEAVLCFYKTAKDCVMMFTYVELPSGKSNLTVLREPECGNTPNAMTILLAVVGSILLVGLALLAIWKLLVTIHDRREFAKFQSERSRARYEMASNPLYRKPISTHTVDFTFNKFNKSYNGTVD

Structures are written as SMILES. Numbered stars: 1 amine (or outer) side, 2 acyl side, 3 side chain; on linkers, the order of the positions; unused ones are H or OH. Bridge positions count the residues as written; N and C are the ends. Square brackets hold non-standard residues; d marks the D form. Peptide text beside a SMILES is read from it. hCys = N[C@@H](CCS)C(=O)O; Orn = NCCC[C@H](N)C(=O)O; X1 = O=C(C[*:1])[*:2]; X2 = O=C(C[*:2])[*:1] Where only a bound is given, the exact number is not on record here.

As for `CC(C)[C@@H]1NC(=O)CSCC[C@@H](C(=O)N[C@@H](CCCCN)C(=O)N[C@@H](CCCCN)C(=O)N[C@@H](CCCCN)C(=O)O)NC(=O)[C@H](Cc2ccccc2)NC(=O)[C@@H]2CCCCNC(=O)CSCC[C@H](NC1=O)C(=O)N[C@@H](CCCNC(=N)N)C(=O)NCC(=O)N[C@@H](CC(=O)O)C(=O)N2` [Cyclic peptide 28] ({CH2CO}-V[hCys]RGDKF[hCys]KKK-OH; linker 2-6 via X1; thioether N-8), the “Molecule stability (cyclic peptide residual rate)” value in series [1] was “A (The residual rate of the cyclic peptide is 70% or more.)”. Also, the Kd at human integrin αvβ5 was less than 50 nM.
In the same order, the values of `N=C(N)NCCC[C@@H]1NC(=O)[C@@H]2CCSCC(=O)NCCCC[C@H](NC(=O)[C@H](CC(=O)O)NC(=O)CNC1=O)C(=O)N[C@@H](Cc1ccccc1)C(=O)N[C@H](C(=O)N[C@@H](CCCCN)C(=O)N[C@@H](CCCCN)C(=O)N[C@@H](CCCCN)C(=O)O)CCSCC(=O)N[C@@H](CC(=O)O)C(=O)N2` [Cyclic peptide 29] ({CH2CO}-D[hCys]RGDKF[hCys]KKK-OH; linker 2-6 via X1; thioether N-8) are “A (The residual rate of the cyclic peptide is 70% or more.)” and less than 50 nM.
In the same order, the values of `N=C(N)NCCC[C@@H]1NC(=O)[C@@H]2CCSCC(=O)NCCCC[C@H](NC(=O)[C@H](CC(=O)O)NC(=O)CNC1=O)C(=O)N[C@@H](Cc1ccccc1)C(=O)N[C@H](C(=O)N[C@@H](CCCCN)C(=O)N[C@@H](CCCCN)C(=O)N[C@@H](CCCCN)C(=O)O)CCSCC(=O)N[C@@H](CCC(=O)O)C(=O)N2` [Cyclic peptide 30] ({CH2CO}-E[hCys]RGDKF[hCys]KKK-OH; linker 2-6 via X1; thioether N-8) are “A (The residual rate of the cyclic peptide is 70% or more.)” and less than 50 nM.
For `CC[C@H](C)[C@@H]1NC(=O)CSCC[C@@H](C(=O)N[C@@H](CCCCN)C(=O)N[C@@H](CCCCN)C(=O)N[C@@H](CCCCN)C(=O)O)NC(=O)[C@@H]2CCCN2C(=O)[C@@H]2CCCCNC(=O)CSCC[C@H](NC1=O)C(=O)N[C@@H](CCCNC(=N)N)C(=O)NCC(=O)N[C@@H](CC(=O)O)C(=O)N2` [Cyclic peptide 31] ({CH2CO}-I[hCys]RGDKP[hCys]KKK-OH; linker 2-6 via X1; thioether N-8) the same measures were “A (The residual rate of the cyclic peptide is 70% or more.)” and 50 to 100 nM.
`CC[C@H](C)[C@@H]1NC(=O)CSCC[C@@H](C(=O)N[C@@H](CCCCN)C(=O)N[C@@H](CCCCN)C(=O)N[C@@H](CCCCN)C(=O)O)NC(=O)[C@H](Cc2ccc(O)cc2)NC(=O)[C@@H]2CCCCNC(=O)CSCC[C@H](NC1=O)C(=O)N[C@@H](CCCNC(=N)N)C(=O)NCC(=O)N[C@@H](CC(=O)O)C(=O)N2` [Cyclic peptide 32] ({CH2CO}-I[hCys]RGDKY[hCys]KKK-OH; linker 2-6 via X1; thioether N-8): the “Molecule stability (cyclic peptide residual rate)” value in series [1] was “A (The residual rate of the cyclic peptide is 70% or more.)”. Further, the Kd on human integrin αvβ5 fell in the range of 50 to 100 nM.
For `CC[C@H](C)[C@@H]1NC(=O)CSCC[C@@H](C(=O)N[C@@H](CCCCN)C(=O)N[C@@H](CCCCN)C(=O)N[C@@H](CCCCN)C(=O)O)NC(=O)[C@H](CCCNC(=N)N)NC(=O)[C@H](Cc2ccccc2)NC(=O)[C@@H]2CCCCNC(=O)CSCC[C@H](NC1=O)C(=O)N[C@@H](CCCNC(=N)N)C(=O)NCC(=O)N[C@@H](CC(=O)O)C(=O)N2` [Cyclic peptide 33] ({CH2CO}-I[hCys]RGDKFR[hCys]KKK-OH; linker 2-6 via X1; thioether N-9) the same measures were “A (The residual rate of the cyclic peptide is 70% or more.)” and 100 to 200 nM.
Regarding `CC[C@H](C)[C@@H]1NC(=O)CSCC[C@@H](C(=O)N[C@@H](CCCCN)C(=O)N[C@@H](CCCCN)C(=O)N[C@@H](CCCCN)C(=O)O)NC(=O)[C@H](C)NC(=O)[C@H](Cc2ccccc2)NC(=O)[C@@H]2CCCCNC(=O)CSCC[C@H](NC1=O)C(=O)N[C@@H](CCCNC(=N)N)C(=O)NCC(=O)N[C@@H](CC(=O)O)C(=O)N2` [Cyclic peptide 34] ({CH2CO}-I[hCys]RGDKFA[hCys]KKK-OH; linker 2-6 via X1; thioether N-9), in series [1], the “Molecule stability (cyclic peptide residual rate)” value is reported as “A (The residual rate of the cyclic peptide is 70% or more.)”. In addition, the Kd at human integrin αvβ5 lay within 50 to 100 nM.
Turning to `CC[C@H](C)[C@@H]1NC(=O)CSCC[C@@H](C(=O)N[C@@H](C)C(=O)N[C@@H](CCCCN)C(=O)N[C@@H](CCCCN)C(=O)N[C@@H](CCCCN)C(=O)O)NC(=O)[C@H](Cc2ccccc2)NC(=O)[C@@H]2CCCCNC(=O)CSCC[C@H](NC1=O)C(=O)N[C@@H](CCCNC(=N)N)C(=O)NCC(=O)N[C@@H](CC(=O)O)C(=O)N2` [Cyclic peptide 35] ({CH2CO}-I[hCys]RGDKF[hCys]AKKK-OH; linker 2-6 via X1; thioether N-8), the “Molecule stability (cyclic peptide residual rate)” value in series [1] was “A (The residual rate of the cyclic peptide is 70% or more.)”. In addition, the Kd at human integrin αvβ5 is less than 50 nM.
In the same order, the values of `C[C@H](N)C(=O)N[C@H]1CCSCC(=O)NCCCC[C@@H](C(=O)N[C@@H](CCCCN)C(=O)N[C@@H](CCCCN)C(=O)N[C@@H](CCCCN)C(=O)O)NC(=O)[C@H](Cc2ccccc2)NC(=O)[C@@H]2CCCCNC(=O)CSCC[C@H](NC1=O)C(=O)N[C@@H](CCCNC(=N)N)C(=O)NCC(=O)N[C@@H](CC(=O)O)C(=O)N2` [Cyclic peptide 36] (H-A[hCys][hCys]RGDKFKKKK-OH; linker 2-9, 3-7 via X1) are “A (The residual rate of the cyclic peptide is 70% or more.)” and 50 to 100 nM.
As for `C[C@H](NC(=O)[C@@H]1CCCCNC(=O)CSCC[C@H](NC(=O)[C@H](CCCCN)NC(=O)[C@H](CCCCN)NC(=O)[C@@H](N)CCCCN)C(=O)N[C@H]2CCSCC(=O)NCCCC[C@H](NC(=O)[C@H](CC(=O)O)NC(=O)CNC(=O)[C@H](CCCNC(=N)N)NC2=O)C(=O)N[C@@H](Cc2ccccc2)C(=O)N1)C(=O)O` [Cyclic peptide 37] (H-KKK[hCys][hCys]RGDKFKA-OH; linker 4-11, 5-9 via X1), the “Molecule stability (cyclic peptide residual rate)” value in series [1] is “A (The residual rate of the cyclic peptide is 70% or more.)”. Moreover, on human integrin αvβ5, the Kd lay in the range of 50 to 100 nM.
With `CC(C)[C@@H]1NC(=O)CSCC[C@@H](C(=O)N[C@@H](CCCCN)C(=O)N[C@@H](CCCCN)C(=O)N[C@@H](CCCCN)C(=O)O)NC(=O)[C@H](Cc2ccccc2)NC(=O)[C@@H]2CCSCC(=O)NCCC[C@H](NC1=O)C(=O)N[C@@H](CCCNC(=N)N)C(=O)NCC(=O)N[C@@H](CC(=O)O)C(=O)N2` [Cyclic peptide 38] ({CH2CO}-V[Orn]RGD[hCys]F[hCys]KKK-OH; linker 2-6 via X2; thioether N-8), the “Molecule stability (cyclic peptide residual rate)” value in series [1] is reported as “A (The residual rate of the cyclic peptide is 70% or more.)”. For the same molecule, the Kd at human integrin αvβ5 was less than 50 nM.
For the molecule `N=C(N)NCCC[C@@H]1NC(=O)[C@@H]2CCCNC(=O)CSCC[C@H](NC(=O)[C@H](CC(=O)O)NC(=O)CNC1=O)C(=O)N[C@@H](Cc1ccccc1)C(=O)N[C@H](C(=O)N[C@@H](CCCCN)C(=O)N[C@@H](CCCCN)C(=O)N[C@@H](CCCCN)C(=O)O)CCSCC(=O)N[C@@H](CC(=O)O)C(=O)N2` [Cyclic peptide 39] ({CH2CO}-D[Orn]RGD[hCys]F[hCys]KKK-OH; linker 2-6 via X2; thioether N-8), the “Molecule stability (cyclic peptide residual rate)” value in series [1] is listed as “A (The residual rate of the cyclic peptide is 70% or more.)”. The Kd on human integrin αvβ5 was less than 50 nM.
In the same order, the values of `N=C(N)NCCC[C@@H]1NC(=O)[C@@H]2CCCNC(=O)CSCC[C@H](NC(=O)[C@H](CC(=O)O)NC(=O)CNC1=O)C(=O)N[C@@H](Cc1ccccc1)C(=O)N[C@H](C(=O)N[C@@H](CCCCN)C(=O)N[C@@H](CCCCN)C(=O)N[C@@H](CCCCN)C(=O)O)CCSCC(=O)N[C@@H](CCC(=O)O)C(=O)N2` [Cyclic peptide 40] ({CH2CO}-E[Orn]RGD[hCys]F[hCys]KKK-OH; linker 2-6 via X2; thioether N-8) are “A (The residual rate of the cyclic peptide is 70% or more.)” and less than 50 nM.
As to `CC(C)[C@@H]1NC(=O)CSCC[C@@H](C(=O)N[C@@H](CCCCN)C(=O)N[C@@H](CCCCN)C(=O)N[C@@H](CCCCN)C(=O)O)NC(=O)[C@H](Cc2ccccc2)NC(=O)[C@@H]2CCCNC(=O)CSCC[C@H](NC1=O)C(=O)N[C@@H](CCCNC(=N)N)C(=O)NCC(=O)N[C@@H](CC(=O)O)C(=O)N2` [Cyclic peptide 41] ({CH2CO}-V[hCys]RGD[Orn]F[hCys]KKK-OH; linker 2-6 via X1; thioether N-8), the “Molecule stability (cyclic peptide residual rate)” value in series [1] is “A (The residual rate of the cyclic peptide is 70% or more.)”. Also, the Kd at human integrin αvβ5 fell in the range of 50 to 100 nM.
Consider `N=C(N)NCCC[C@@H]1NC(=O)[C@@H]2CCSCC(=O)NCCC[C@H](NC(=O)[C@H](CC(=O)O)NC(=O)CNC1=O)C(=O)N[C@@H](Cc1ccccc1)C(=O)N[C@H](C(=O)N[C@@H](CCCCN)C(=O)N[C@@H](CCCCN)C(=O)N[C@@H](CCCCN)C(=O)O)CCSCC(=O)N[C@@H](CC(=O)O)C(=O)N2` [Cyclic peptide 42] ({CH2CO}-D[hCys]RGD[Orn]F[hCys]KKK-OH; linker 2-6 via X1; thioether N-8), for which, in series [1], the “Molecule stability (cyclic peptide residual rate)” value is on record as “A (The residual rate of the cyclic peptide is 70% or more.)”. Besides, on human integrin αvβ5, the Kd is less than 50 nM.

The values above are taken from patent publication US12624067B2, “Cyclic peptide, cell scaffold material, cell separating material, and medium” (FUJIFILM Corporation, priority 2019, dated 2026).
